Assay in all cases: KINOMEscan competitive binding, whole panel
In assay [1] the target is T1, panel of 203 kinases (Homo sapiens, UniProt O94768).
T1 construct: purchased DiscoverX (KINOMEscan)
T1 sequence (O94768 1-372): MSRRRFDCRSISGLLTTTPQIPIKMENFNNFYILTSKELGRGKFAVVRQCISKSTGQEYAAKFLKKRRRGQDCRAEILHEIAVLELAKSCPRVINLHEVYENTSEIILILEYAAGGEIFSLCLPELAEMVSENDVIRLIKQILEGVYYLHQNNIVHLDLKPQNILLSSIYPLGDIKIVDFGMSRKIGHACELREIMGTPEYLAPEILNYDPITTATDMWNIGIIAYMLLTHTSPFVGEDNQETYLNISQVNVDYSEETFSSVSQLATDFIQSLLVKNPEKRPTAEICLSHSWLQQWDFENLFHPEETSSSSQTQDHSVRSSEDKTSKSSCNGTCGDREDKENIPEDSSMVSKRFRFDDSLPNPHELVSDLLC
To be noted: 10 µM, n=1; kinase DRAK2; read-out: Percent inhibition DRAK2. Put shortly:
(§1)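 T7 phage-fused kinases; compound displaces immobilized ATP-site probe ligand; bead-bound kinase quantified; % inhibition reported.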

Assay [2] addresses T2, panel of 203 kinases (Homo sapiens, UniProt P53779).
T2 construct: purchased DiscoverX (KINOMEscan)
To be noted: 10 µM, n=1; kinase JNK3; read-out: Percent inhibition JNK3. Summed up: as §1

The target in assay [3] is T3, panel of 203 kinases (Homo sapiens, UniProt Q8IVH8).
T3 construct: purchased DiscoverX (KINOMEscan)
T3 sequence (Q8IVH8 1-894): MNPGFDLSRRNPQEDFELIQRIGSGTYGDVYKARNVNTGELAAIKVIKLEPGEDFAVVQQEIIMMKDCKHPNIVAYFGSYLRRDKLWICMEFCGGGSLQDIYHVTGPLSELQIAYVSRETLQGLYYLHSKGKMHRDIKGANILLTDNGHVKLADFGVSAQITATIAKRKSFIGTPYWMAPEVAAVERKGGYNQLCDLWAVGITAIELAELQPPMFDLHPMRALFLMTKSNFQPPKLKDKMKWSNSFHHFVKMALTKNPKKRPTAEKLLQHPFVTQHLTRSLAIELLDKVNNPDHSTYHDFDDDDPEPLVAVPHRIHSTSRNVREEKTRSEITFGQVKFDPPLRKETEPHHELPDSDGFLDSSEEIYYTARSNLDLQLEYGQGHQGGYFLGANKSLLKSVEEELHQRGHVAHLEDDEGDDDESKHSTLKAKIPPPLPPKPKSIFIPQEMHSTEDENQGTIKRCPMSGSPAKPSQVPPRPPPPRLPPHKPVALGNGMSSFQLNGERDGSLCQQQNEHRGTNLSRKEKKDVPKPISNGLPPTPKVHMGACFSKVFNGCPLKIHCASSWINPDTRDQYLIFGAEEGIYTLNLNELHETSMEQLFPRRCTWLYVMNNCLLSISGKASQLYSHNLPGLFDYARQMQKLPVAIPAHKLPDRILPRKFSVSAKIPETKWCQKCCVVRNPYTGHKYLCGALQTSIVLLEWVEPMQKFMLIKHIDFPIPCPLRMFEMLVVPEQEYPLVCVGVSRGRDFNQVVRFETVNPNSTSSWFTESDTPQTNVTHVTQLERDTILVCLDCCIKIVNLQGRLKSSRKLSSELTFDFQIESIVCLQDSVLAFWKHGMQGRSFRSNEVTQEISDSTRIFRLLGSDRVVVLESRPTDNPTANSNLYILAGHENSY
Particulars: 10 µM, n=1; kinase MAP4K3; read-out: Percent inhibition MAP4K3. Summed up:
as §1

Assay [4] has as its target T4, panel of 203 kinases (Homo sapiens, UniProt Q8IWQ3).
T4 construct: purchased DiscoverX (KINOMEscan)
T4 sequence (Q8IWQ3 1-736): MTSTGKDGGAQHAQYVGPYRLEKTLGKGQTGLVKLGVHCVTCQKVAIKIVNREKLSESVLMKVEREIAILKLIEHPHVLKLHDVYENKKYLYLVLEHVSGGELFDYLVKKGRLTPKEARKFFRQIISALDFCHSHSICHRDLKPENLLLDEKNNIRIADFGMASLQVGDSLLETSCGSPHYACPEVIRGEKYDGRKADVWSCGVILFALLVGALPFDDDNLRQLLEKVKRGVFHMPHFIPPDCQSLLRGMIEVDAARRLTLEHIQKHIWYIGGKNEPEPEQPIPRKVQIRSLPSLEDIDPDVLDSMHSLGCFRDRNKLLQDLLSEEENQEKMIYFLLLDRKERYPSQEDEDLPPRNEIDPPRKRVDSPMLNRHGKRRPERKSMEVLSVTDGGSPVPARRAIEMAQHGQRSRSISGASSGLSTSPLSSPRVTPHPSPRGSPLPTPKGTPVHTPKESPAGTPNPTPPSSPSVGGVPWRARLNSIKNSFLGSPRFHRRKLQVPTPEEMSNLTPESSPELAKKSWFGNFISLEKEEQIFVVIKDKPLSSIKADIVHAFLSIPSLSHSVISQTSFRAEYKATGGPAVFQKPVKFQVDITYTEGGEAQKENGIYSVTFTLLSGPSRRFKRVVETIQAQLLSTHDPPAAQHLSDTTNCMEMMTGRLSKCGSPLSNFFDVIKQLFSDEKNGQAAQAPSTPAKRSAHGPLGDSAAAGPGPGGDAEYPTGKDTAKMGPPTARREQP
To be noted: 10 µM, n=1; kinase BRSK2; read-out: Percent inhibition BRSK2. Summed up: as §1

Assay [5] addresses T5, panel of 203 kinases (Homo sapiens, UniProt Q8NI60).
T5 construct: purchased DiscoverX (KINOMEscan)
To be noted: 10 µM, n=1; kinase ADCK3; read-out: Percent inhibition ADCK3. Put shortly: as §1

Assay [6] concerns the target T6, panel of 203 kinases (Homo sapiens, UniProt Q96RR4).
T6 construct: purchased DiscoverX (KINOMEscan)
Particulars: 10 µM, n=1; kinase CAMKK2; read-out: Percent inhibition CAMKK2. Summed up:
as §1

Assay [7] addresses T7, panel of 203 kinases (Homo sapiens, UniProt Q9UQM7).
T7 construct: purchased DiscoverX (KINOMEscan)
Particulars: 10 µM, n=1; kinase CAMK2A; read-out: Percent inhibition CAMK2A. Summed up: as §1

T7 sequence (Q9UQM7 whole entry): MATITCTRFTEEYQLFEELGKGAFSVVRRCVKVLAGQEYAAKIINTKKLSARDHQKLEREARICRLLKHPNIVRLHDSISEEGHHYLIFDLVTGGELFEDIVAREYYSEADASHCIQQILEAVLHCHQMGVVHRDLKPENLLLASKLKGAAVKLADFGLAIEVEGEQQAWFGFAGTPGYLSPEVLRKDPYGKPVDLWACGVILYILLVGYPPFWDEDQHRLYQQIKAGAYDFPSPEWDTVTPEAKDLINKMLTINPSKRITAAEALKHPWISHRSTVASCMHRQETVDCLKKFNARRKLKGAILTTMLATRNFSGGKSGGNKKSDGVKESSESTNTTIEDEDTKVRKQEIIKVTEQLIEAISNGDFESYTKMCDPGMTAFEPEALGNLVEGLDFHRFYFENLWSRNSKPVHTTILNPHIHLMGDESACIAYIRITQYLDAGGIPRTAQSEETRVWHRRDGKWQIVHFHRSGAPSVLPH
T6 sequence (Q96RR4 whole entry): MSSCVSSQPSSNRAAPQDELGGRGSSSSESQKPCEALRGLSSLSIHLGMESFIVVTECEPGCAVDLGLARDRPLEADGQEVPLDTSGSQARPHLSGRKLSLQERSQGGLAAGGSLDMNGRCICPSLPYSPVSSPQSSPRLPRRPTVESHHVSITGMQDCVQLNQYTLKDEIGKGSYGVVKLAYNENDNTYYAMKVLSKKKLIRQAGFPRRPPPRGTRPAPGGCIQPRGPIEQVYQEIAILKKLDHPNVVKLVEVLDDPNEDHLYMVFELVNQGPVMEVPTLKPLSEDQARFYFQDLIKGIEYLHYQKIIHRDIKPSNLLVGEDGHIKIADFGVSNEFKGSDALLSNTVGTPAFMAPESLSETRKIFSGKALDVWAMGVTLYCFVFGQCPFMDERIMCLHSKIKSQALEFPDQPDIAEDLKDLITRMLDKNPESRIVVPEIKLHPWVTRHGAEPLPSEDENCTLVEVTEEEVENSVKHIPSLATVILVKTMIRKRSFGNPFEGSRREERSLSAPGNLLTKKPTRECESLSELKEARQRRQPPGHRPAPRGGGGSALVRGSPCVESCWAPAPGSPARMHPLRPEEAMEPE
T2 sequence (P53779 whole entry): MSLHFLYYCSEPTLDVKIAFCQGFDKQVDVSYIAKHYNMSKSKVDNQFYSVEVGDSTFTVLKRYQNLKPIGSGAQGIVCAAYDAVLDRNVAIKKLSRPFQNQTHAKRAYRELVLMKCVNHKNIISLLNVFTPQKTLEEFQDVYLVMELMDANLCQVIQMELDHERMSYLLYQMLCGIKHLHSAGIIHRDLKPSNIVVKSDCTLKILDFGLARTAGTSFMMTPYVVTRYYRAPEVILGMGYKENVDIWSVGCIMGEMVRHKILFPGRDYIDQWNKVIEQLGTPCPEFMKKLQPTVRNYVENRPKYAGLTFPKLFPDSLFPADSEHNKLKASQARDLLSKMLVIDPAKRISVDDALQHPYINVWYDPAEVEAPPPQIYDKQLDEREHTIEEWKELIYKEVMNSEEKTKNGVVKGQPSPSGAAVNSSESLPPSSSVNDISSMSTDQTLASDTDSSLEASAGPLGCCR
T5 sequence (Q8NI60 163-647): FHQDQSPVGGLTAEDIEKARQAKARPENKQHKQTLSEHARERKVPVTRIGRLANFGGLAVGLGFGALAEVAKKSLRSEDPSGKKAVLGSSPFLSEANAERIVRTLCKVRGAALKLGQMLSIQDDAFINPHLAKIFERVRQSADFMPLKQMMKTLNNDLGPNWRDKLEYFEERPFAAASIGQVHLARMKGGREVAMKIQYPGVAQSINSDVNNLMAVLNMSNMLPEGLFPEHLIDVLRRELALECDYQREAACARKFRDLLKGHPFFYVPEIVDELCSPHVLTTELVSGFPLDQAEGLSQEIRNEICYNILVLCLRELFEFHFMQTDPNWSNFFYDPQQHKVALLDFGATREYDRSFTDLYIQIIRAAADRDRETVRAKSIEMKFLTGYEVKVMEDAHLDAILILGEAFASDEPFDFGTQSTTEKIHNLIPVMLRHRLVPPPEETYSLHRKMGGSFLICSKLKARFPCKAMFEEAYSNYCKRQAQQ

`Cc1ccc(O)cc1Nc1ccnc(Nc2cccc(C(N)=O)c2)n1` [Compound 3]: the inhibition (usually how much of the control response was suppressed) at 10 µM stood at 0% on panel of 203 kinases [1]; 94.2% at panel of 203 kinases [2]; 80.2% on panel of 203 kinases [3]; 0% on panel of 203 kinases [4]; 0% at panel of 203 kinases [5]; 0% on panel of 203 kinases [6]. On panel of 203 kinases [7], the inhibition at 10 µM came to 0%.

In the case of `Clc1ccc(Nc2ncc(-c3ccccc3)s2)cc1` [Compound 10], the inhibition at 10 µM on panel of 203 kinases [1], on panel of 203 kinases [2], at panel of 203 kinases [3], at panel of 203 kinases [4], at panel of 203 kinases [5] and on panel of 203 kinases [6] was 0% in each case. Also, at panel of 203 kinases [7], the inhibition at 10 µM amounted to 0%.

Consider `c1ccc(COc2cccc(-c3ccnc4[nH]ccc34)c2)cc1` [Compound 9], for which the inhibition at 10 µM at panel of 203 kinases [1], on panel of 203 kinases [2], at panel of 203 kinases [3], on panel of 203 kinases [4], at panel of 203 kinases [5] and at panel of 203 kinases [6] was 0% in each case. Also, the inhibition at 10 µM on panel of 203 kinases [7] was determined as 0%.

For `Fc1cccc(COc2ccc(Nc3ncnc4c3CN(CCN3CCOCC3)CC4)cc2Cl)c1` [Compound 6], the inhibition at 10 µM at panel of 203 kinases [1], on panel of 203 kinases [2], on panel of 203 kinases [3], at panel of 203 kinases [4], on panel of 203 kinases [5] and on panel of 203 kinases [6] was 0% in each case. Besides, the inhibition at 10 µM at panel of 203 kinases [7] stood at 0%.

Consider `C[C@@H](Oc1cc(-c2cnc3ccccn23)sc1C(N)=O)c1ccccc1Cl` [Compound 8], for which the inhibition at 10 µM was 0% at panel of 203 kinases [1]; 0% on panel of 203 kinases [2]; 0% at panel of 203 kinases [3]; 91.2% on panel of 203 kinases [4]; 0% on panel of 203 kinases [5]; 81.2% on panel of 203 kinases [6]. Besides, the inhibition at 10 µM on panel of 203 kinases [7] stood at 66.5%.

On to `CN1CCN(c2ccc(Nc3nccc(-c4cnn5ncccc45)n3)cc2C#N)CC1` [Compound 1], for which the inhibition at 10 µM on panel of 203 kinases [1] is 82.4%; on panel of 203 kinases [2], 100%; at panel of 203 kinases [3], 97%; at panel of 203 kinases [4], 0%; at panel of 203 kinases [5], 93.7%; on panel of 203 kinases [6] it was 98%. The inhibition at 10 µM at panel of 203 kinases [7] was determined as 98.7%.

For `Cc1ccc(O)cc1N(C)c1ccnc(Nc2cccc(S(N)(=O)=O)c2)n1` [Compound 4], the inhibition at 10 µM at panel of 203 kinases [1] came to 0%; on panel of 203 kinases [2] it was 96.1%; on panel of 203 kinases [3] it was 98.5%; on panel of 203 kinases [4], 0%; at panel of 203 kinases [5], 91.1%; at panel of 203 kinases [6] it was 0%. In addition, the inhibition at 10 µM on panel of 203 kinases [7] is 0%.

Regarding `COc1ccc(Nc2nccc(-c3cnn4ncccc34)n2)cc1` [Compound 2], the inhibition at 10 µM at panel of 203 kinases [1] came out at 88.6%; on panel of 203 kinases [2], 100%; at panel of 203 kinases [3], 79.3%; at panel of 203 kinases [4] it was 0%; on panel of 203 kinases [5], 99.5%; on panel of 203 kinases [6] it was 96.3%. Further, the inhibition at 10 µM on panel of 203 kinases [7] came out at 82.5%.

With `Nc1ncc2c(-c3ccncc3)c[nH]c2n1` [Compound 11], the inhibition at 10 µM at panel of 203 kinases [1] is 89.7%; at panel of 203 kinases [2], 97.1%; at panel of 203 kinases [3], 82%; at panel of 203 kinases [4] it was 0%; at panel of 203 kinases [5], 0%; at panel of 203 kinases [6], 0%. For the same compound, the inhibition at 10 µM at panel of 203 kinases [7] is 77.6%.

Consider `COc1cc(Nc2nccc(-c3sc(N)nc3-c3cccc(NC(=O)c4c(F)cccc4F)c3)n2)cc(OC)c1OC` [Compound 7], for which the inhibition at 10 µM on panel of 203 kinases [1] stood at 0%; at panel of 203 kinases [2] it was 100%; on panel of 203 kinases [3], 99.7%; at panel of 203 kinases [4], 0%; at panel of 203 kinases [5] it was 100%; on panel of 203 kinases [6], 0%. Further, on panel of 203 kinases [7], the inhibition at 10 µM turned out to be 0%.

The record behind these values is article PMC9927415, “Tyrosine Kinase Inhibitors Display Potent Activity against Cryptosporidium parvum” (Microbiology Spectrum, 2022).
